Test results as given in patent US9012200B2, “Composition of bacterial strains, bioremediation mixture and use of this composition for the removal of contaminants from the soil and the method for purifying the soil contaminants” (priority 2012, dated 2015).
Values after ≈ are worked out from the molar mass of the structure shown.

Experiments:
[1] = system: model strain Escherichia coli; conditions: according to Spain, 2003; cited from earlier work
[2] = system: investigated strains of bacteria; type: cell-based
[3] = system: Stenotrophomonas sp. strain 5L; type: cell-based
[4] = system: Brevundimonas sp. strain 2N; type: cell-based
[5] = system: Stenotrophomonas sp. strain 2L; type: cell-based
[6] = system: Brevundimonas sp. strain 5N; type: cell-based
[7] = system: Brevundimonas sp. strain 6N; type: cell-based
[8] = system: Arthrobacter sp. strain 1N; type: cell-based
[9] = system: Achromobacter sp. strain 4P; type: cell-based
[10] = system: Pseudomonas sp. strain 4G; type: cell-based; conditions: 24 h
[11] = system: Stenotrophomonas sp. strain 6L; type: cell-based
[12] = system: Stenotrophomonas sp. strain 3N; type: cell-based
[13] = system: Pseudomonas sp. strain 3G; type: cell-based; conditions: 24 h
[14] = system: Stenotrophomonas sp. strain 6L; test: Disc diffusion antibiotic susceptibility; type: cell-based; conditions: 24 h
Procedure: (§1) A disc diffusion method was performed to determine the susceptibility of bacteria to the selected antibiotics. We used discs soaked with the antibiotic of a well-defined concentration (BioMerioux) (Table 2) and the minimal inhibitory concentration test was carried out, using E-tests (Oxoid) (Table 3).
(§2) A McFarland's 0.5 inoculum was prepared from each strain's culture, using a densitometer (EMO). Then, using sterile cotton swabs, the suspension of bacterial cells was spread on dishes with ready-to-use MHA medium (Oxoid), and after 15 minutes, discs soaked with antibiotics at defined concentrations were placed on them.
(§3) The dishes were incubated at 25-30° C., and the results were read after 24 and 48 hours. The measure of susceptibility of a tested strain to a given antibiotic was the size of the inhibition zone which formed around the disc soaked with the antibiotic. The results read (sizes of zones measured in mm) were compared with the data contained in the European Committee on Antimicrobial Susceptibility Testing (EUCAST) standards from 2010 (Table 4).
(§4) The measure of susceptibility of the tested bacterial strain to a given antibiotic was the size of the inhibition zone which formed around the disc (Table 5).

[15] = system: Stenotrophomonas sp. strain 5L; test: Disc diffusion antibiotic susceptibility; type: cell-based
Procedure: as §1, §2, §3, §4

[16] = system: Achromobacter sp. strain 4P; test: Disc diffusion antibiotic susceptibility; type: cell-based
Procedure: as §1, §2, §3, §4

[17] = system: Brevundimonas sp. strain 5N; test: Disc diffusion antibiotic susceptibility; type: cell-based; conditions: 24 h
Procedure: as §1, §2, §3, §4

[18] = system: Brevundimonas sp. strain 6N; test: Disc diffusion antibiotic susceptibility; type: cell-based
Procedure: as §1, §2, §3, §4

[19] = system: Brevundimonas sp. strain 2N; test: Disc diffusion antibiotic susceptibility; type: cell-based
Procedure: as §1, §2, §3, §4

[20] = system: Stenotrophomonas sp. strain 2L; test: Disc diffusion antibiotic susceptibility; type: cell-based
Procedure: as §1, §2, §3, §4

[21] = system: Stenotrophomonas sp. strain 3N; test: Disc diffusion antibiotic susceptibility; type: cell-based
Procedure: as §1, §2, §3, §4

[22] = system: Arthrobacter sp. strain 1N; test: Disc diffusion antibiotic susceptibility; type: cell-based
Procedure: as §1, §2, §3, §4

[23] = system: Pseudomonas sp. strain 3G; test: Disc diffusion antibiotic susceptibility; type: cell-based
Procedure: as §1, §2, §3, §4

[24] = system: Pseudomonas sp. strain 4G; test: Disc diffusion antibiotic susceptibility; type: cell-based; conditions: 24 h
Procedure: as §1, §2, §3, §4

[25] = system: Stenotrophomonas sp. strain 6L; test: Antibiotic MIC by E-test; type: cell-based; conditions: 24 h
Procedure: as §1
(§5) In the next stage of the research, MIC values of a given antibiotic for the investigated strains were determined, meaning the lowest concentration of the drug, expressed in mg/L, determined in vitro, which inhibits the growth of bacteria at a defined inoculum density, within a given time (Hryniewicz et at, 2001). These studies allow for the closer determination of the degree of susceptibility of bacteria to the applied antibiotics.
(§6) A bacterial suspension was evenly distributed on dishes with ready-to-use MHA medium (Oxoid), and then plastic testing strips (E-tests) soaked with an antibiotic with a concentration gradient were placed thereon. The dishes were incubated at 25-30° C. for 24 h, and the test results were read after this time.
(§7) The intersection of elliptical zone of inhibition, which appeared around the test strip, with the value indicator on the gradient scale of the strip, determined the lowest concentration of antibiotic, inhibiting growth of the microorganism (MIC). Similarly as in the disc diffusion method, the obtained results were compared with the guidelines contained in the relevant standards.

[26] = system: Stenotrophomonas sp. strain 5L; test: Antibiotic MIC by E-test; type: cell-based; conditions: 24 h
Procedure: as §1, §5, §6, §7

[27] = system: Achromobacter sp. strain 4P; test: Antibiotic MIC by E-test; type: cell-based; conditions: strain 4P, E-test, 24 h
Procedure: as §1, §5, §6, §7

[28] = system: Brevundimonas sp. strain 5N; test: Antibiotic MIC by E-test; type: cell-based; conditions: 24 h
Procedure: as §1, §5, §6, §7

[29] = system: Brevundimonas sp. strain 6N; test: Antibiotic MIC by E-test; type: cell-based; conditions: 24 h
Procedure: as §1, §5, §6, §7

[30] = system: Brevundimonas sp. strain 2N; test: Antibiotic MIC by E-test; type: cell-based; conditions: 24 h
Procedure: as §1, §5, §6, §7

[31] = system: Stenotrophomonas sp. strain 2L; test: Antibiotic MIC by E-test; type: cell-based; conditions: 24 h
Procedure: as §1, §5, §6, §7

[32] = system: Stenotrophomonas sp. strain 3N; test: Antibiotic MIC by E-test; type: cell-based; conditions: 24 h
Procedure: as §1, §5, §6, §7

[33] = system: Arthrobacter sp. strain 1N; test: Antibiotic MIC by E-test; type: cell-based; conditions: strain 1N, E-test, 24 h
Procedure: as §1, §5, §6, §7

[34] = system: Pseudomonas sp. strain 3G; test: Antibiotic MIC by E-test; type: cell-based; conditions: 24 h
Procedure: as §1, §5, §6, §7

[35] = system: Pseudomonas sp. strain 4G; test: Antibiotic MIC by E-test; type: cell-based; conditions: 24 h
Procedure: as §1, §5, §6, §7

[36] = Stenotrophomonas, read-out: MIC threshold values for a given antibiotic
[37] = Brevundimonas, read-out: MIC threshold values for a given antibiotic
[38] = Pseudomonas, read-out: MIC threshold values for a given antibiotic

[K+].[K+].[O]=[Cr](=[O])([O-])[O][Cr](=[O])(=[O])[O-] [Cr(VI), Potassium dichromate]
MIC [1]: 0.2 mM/L | Susceptibility of the investigated strains to the heavy metal [2]: resistant

O=S(=O)([O-])[O-].[Cd+2] [Cd(II), Cadmium sulphate]
MIC [1]: 0.5 mM/L | MIC threshold values of heavy metals [3]: 0.1 mM/L | MIC threshold values of heavy metals [4]: 0.1 mM/L | MIC threshold values of heavy metals [5]: 0.1 mM/L | MIC threshold values of heavy metals [6]: 0.1(0.2) mM/L | Growth of the strains in the presence of the metal salt [2]: None of the investigated strains was able to grow | Susceptibility of the investigated strains to the heavy metal [2]: susceptible | MIC threshold values of heavy metals [7]: 0.1 mM/L | MIC threshold values of heavy metals [8]: 0.1 mM/L | MIC threshold values of heavy metals [9]: 0.1(0.2) mM/L | MIC threshold values of heavy metals [10]: 0.1 mM/L | MIC threshold values of heavy metals [11]: 0.1 mM/L | MIC threshold values of heavy metals [12]: 0.1 mM/L | MIC threshold values of heavy metals [13]: 0.1 mM/L

O=C(O)c1cn(C2CC2)c2cc(N3CCNCC3)c(F)cc2c1=O [CIP, ciprofloxacin]
Size of the growth inhibition zone [14]: 0 mm | Size of the growth inhibition zone ([15]; 24 h): 10 mm | Size of the growth inhibition zone ([15]; 48 h): 0 mm | Size of the growth inhibition zone ([16]; 24 h): 0 mm | Size of the growth inhibition zone [17]: 0 mm | Size of the growth inhibition zone ([18]; 24 h): 0 mm | Size of the growth inhibition zone ([19]; 24 h): 0 mm | Size of the growth inhibition zone ([20]; 24 h): 0 mm | Size of the growth inhibition zone ([21]; 24 h): 0 mm | Size of the growth inhibition zone ([22]; 24 h): 0 mm | Size of the growth inhibition zone ([23]; 24 h): 0 mm | Size of the growth inhibition zone [24]: 0 mm | MIC [25, 36]: ≥ 32 µg/mL | MIC [26, 36]: 4 µg/mL (≈ 12.1 µM) | MIC ([27]; Achromobacter, read-out: MIC threshold values for a given antibiotic): ≥ 32 µg/mL | MIC [28, 37]: ≥ 32 µg/mL | MIC [29, 37]: ≥ 32 µg/mL | MIC [30, 37]: ≥ 32 µg/mL | MIC [31, 36]: ≥ 32 µg/mL | MIC [32, 36]: ≥ 32 µg/mL | MIC ([33]; Arthrobacter, read-out: MIC threshold values for a given antibiotic): ≥ 32 µg/mL | MIC [34, 38]: ≥ 32 µg/mL | MIC [35, 38]: ≥ 32 µg/mL

gentamicin [CN]
Size of the growth inhibition zone [14]: 0 mm | Size of the growth inhibition zone ([15]; 24 h): 22 mm | Size of the growth inhibition zone ([16]; 24 h): 22 mm | Size of the growth inhibition zone ([16]; 48 h): 21 mm | Size of the growth inhibition zone [17]: 24 mm | Size of the growth inhibition zone ([18]; 24 h): 23 mm | Size of the growth inhibition zone ([18]; 48 h): 20 mm | Size of the growth inhibition zone ([19]; 24 h): 24 mm | Size of the growth inhibition zone ([19]; 48 h): 21 mm | Size of the growth inhibition zone ([20]; 24 h): 24 mm | Size of the growth inhibition zone ([20]; 48 h): 19 mm | Size of the growth inhibition zone ([21]; 24 h): 25 mm | Size of the growth inhibition zone ([21]; 48 h): 0 mm | Size of the growth inhibition zone ([22]; 24 h): 23 mm | Size of the growth inhibition zone ([22]; 48 h): 18 mm | Size of the growth inhibition zone ([23]; 24 h): 22 mm | Size of the growth inhibition zone ([23]; 48 h): 20 mm | Size of the growth inhibition zone [24]: 0 mm | MIC threshold values for a given antibiotic [25]: 256 µg/mL | MIC threshold values for a given antibiotic [26]: 8 µg/mL | MIC threshold values for a given antibiotic [27]: 4 µg/mL | MIC threshold values for a given antibiotic [28]: 4 µg/mL | MIC threshold values for a given antibiotic [29]: 8 µg/mL | MIC threshold values for a given antibiotic [30]: 8 µg/mL | MIC threshold values for a given antibiotic [31]: 4 µg/mL | MIC threshold values for a given antibiotic [32]: 8 µg/mL | MIC threshold values for a given antibiotic [33]: 8 µg/mL | MIC threshold values for a given antibiotic [34]: ≧256 μg/ml | MIC threshold values for a given antibiotic [35]: ≧256 μg/ml
